This passage reports Ki results from US20230174484A1, “ANTAGONISTS OF GPR39 PROTEIN” (Oregon Health & Science University, priority 2020, published 2023).

Bounds are passed on as bounds.

For the assay, the target named is T1, human GPR39 receptor (Homo sapiens, UniProt O43194).
T1 construct: PC3 Cells, Expressing the Endogenous Human GPR39 Receptor; endogenous in cells; host or cells: PC3 (human prostate adenocarcinoma) cells
T1 sequence (O43194 1-453): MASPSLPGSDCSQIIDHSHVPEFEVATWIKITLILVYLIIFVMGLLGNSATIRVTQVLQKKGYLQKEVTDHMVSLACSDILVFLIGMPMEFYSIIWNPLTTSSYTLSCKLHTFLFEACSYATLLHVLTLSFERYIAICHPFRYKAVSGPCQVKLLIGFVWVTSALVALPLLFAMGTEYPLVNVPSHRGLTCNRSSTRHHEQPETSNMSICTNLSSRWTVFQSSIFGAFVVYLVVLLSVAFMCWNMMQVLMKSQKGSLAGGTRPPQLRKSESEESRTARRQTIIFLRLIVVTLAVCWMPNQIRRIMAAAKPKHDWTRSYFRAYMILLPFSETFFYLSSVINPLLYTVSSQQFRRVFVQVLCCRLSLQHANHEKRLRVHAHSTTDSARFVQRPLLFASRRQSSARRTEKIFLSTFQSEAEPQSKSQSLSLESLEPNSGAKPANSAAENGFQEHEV
Briefly: Measurement of intracellular calcium response in PC3 cells (FLIPR), antagonism of the C3 agonist response. Conditions: functional pKi (modified Cheng-Prusoff), inhibition of the C3 (TC-G 1008) response at EC90, 30 μM ZnCl2, read-out: fpKi activity. In kind it is cell-based. The protocol:
Human prostate adenocarcinoma (PC3) cells endogenously expressing human GPR39 receptor were seeded into black walls clear-base 384-well plates at a density of 7,500 cells per well in DM EM (Low Glucose) supplemented with 10% heat-inactivated foetal bovine serum and 1% of Pen/Strep and grown overnight at 37° C., 5% CO2. After washing with assay buffer (20 mM HEPES, 137 mM NaCI, 5.4 mM KCI, 10 mM glucose, 0.8 mM MgSO4, 1.3 mM CaCl2, 0.3 mM Na2HPO4, 0.4 mM KH2PO4 4.2 mM NaHCO3, pH 7.4), cells were incubated with Calcium-6 probe (Molecular Devices) at 37° C. for 2h and then equilibrated at RT for 30 minutes on metal block. The fluorescence was measured in real time by Fluorometric Imaging Plate Reader (FLIPR TETRA, Molecular Devices) (excitation wavelength at 470-495 nm, emission wavelength at 515-575 nm).
Compounds of invention were serially diluted in neat DMSO at 1000 fold concentrations and plated into 384-well plates and then 200-fold diluted in assay buffer containing 150 uM ZnCl2 (30 μM final concentration) and […].
Fluorescence was monitored throughout the run assay. The peak of Ca2+stimulation (baseline subtracted) was expressed as percentage of the maximal inhibition of the EC90 C3 response and was plotted versus the concentration of test compound. Curve fitting and IC50 estimations are carried out using a four-parameter logistic model using XLfit Software.
The potency of compounds was reported as functional pKi (—Log10Ki) obtained using the modified Cheng-Prusoff relationship (Cheng, Y., Prusoff, W. H. 1973.)
fKi =IC50/(1+[L]/EC50) where IC50 is the concentration of antagonist required for 50% inhibition of the maximum response, [L] is the concentration of the agonist used (EC90) and EC50 is the concentration of agonist need to induced 50% of the maximum response (obtained in each experimental plate).
An fpKi less than 5.2 is reported as “+/±”. An fpKi ranging from 5.2 to 5.9 is reported as “+”. An fpKi from 6.0 to 6.5 is reported as “++”. An fpKi from 6.6 to 7.2 is reported as “+++”. An fpKi equal to or greater than 7.3 is reported as “++++”.
For orientation: A change in cytosolic calcium serves as a functional read-out for many receptors and channels.
As to `CCCN1CCN(C(=O)c2ccc(NC(=O)C3CC3)cc2N2CCCC3(COC3)C2)CC1` [Example 6, N-(4-(4-propylpiperazine-1-carbonyl)-3-(2-oxa-6-azaspiro[3.5]nonan-6-yl)phenyl)cyclopropane carboxamide], the Ki was 1260 to 6310 nM. With `CN1CCN(C(=O)c2ccc(NC(=O)C3CC3)cc2N2CCCCCC2)C(c2ccsc2)C1` (single isomer, unassigned) [Example 70b, N-(3-(azepan-1-yl)-4-(4-methyl-2-(thiophen-3-yl)piperazine-1-carbonyl)phenyl)cyclopropane carboxamide] the figure was ≤ 50.1 nM. Take `Cc1nnc(-c2ccc(C(=O)N3CCN(C)CC3c3ccccc3)c(N3CCCC3)c2)[nH]1` (single isomer, unassigned) [Example 150a, (2R or 2S) (4-methyl-2-phenylpiperazin-1-yl)-[4-(5-methyl-4H-1,2,4-triazol-3-yl)-2-pyrrolidin-1-ylphenyl]methanone]: the Ki was in the range of 63.1 to 251 nM. The result for `CN1CCn2c(cnc2-c2ccc(NC(=O)C3CC3)cc2N2CCCC2)C1` [Example 103, N-[4-(7-methyl-6,8-dihydro-5H-imidazo[1,5-a]pyrazin-3-yl)-3-pyrrolidin-1-ylphenyl]cyclopropanecarboxamide] reads 316 to 1000 nM. Consider `CN1CCN(C(=O)c2ccc(NC(=O)C3CC3)cc2N2CCCC2)C(c2ccc(Cl)cc2)C1` (racemic) [Example 176, N-[4-[2-(4-chlorophenyl)-4-methylpiperazine-1-carbonyl]-3-pyrrolidin-1-ylphenyl]cyclopropanecarboxamide], for which the Ki lay in the range of 316 to 1000 nM. With `CC(C)c1ccn(-c2cc(NC(=O)C3CC3)ccc2C(=O)N2CCS(=O)(=O)CC2)n1` [Example 179, N-[4-(1,1-dioxo-1,4-thiazinane-4-carbonyl)-3-(3-propan-2-ylpyrazol-1-yl)phenyl]cyclopropanecarboxamide] the figure was ≤ 50.1 nM; with `O=C(Nc1ccc(C(=O)N2CCS(=O)(=O)CC2)c(N2CCCC(C(F)(F)F)C2)c1)C1CC1` (racemic) [Example 185c, N-[4-(1,1-dioxo-1,4-thiazinane-4-carbonyl)-3-[3-(trifluoromethyl)piperidin-1-yl]phenyl]cyclopropanecarboxamide], 63.1 to 251 nM. As to `CCCN1CCN(C(=O)c2ccc(NC(=O)C3CC3)cc2N2CC3(CCOCC3)C2)CC1` [Example 4, N-(4-(4-propylpiperazine-1-carbonyl)-3-(7-oxa-2-azaspiro[3.5]nonan-2-yl)phenyl)cyclopropane carboxamide], the Ki was 316 to 1000 nM. As for `CCOC1CCN(C(=O)c2ccc(NC(=O)C3CC3)cc2N2CCCCCC2)CC1` [Example 48, N-(3-(azepan-1-yl)-4-(4-ethoxypiperidine-1-carbonyl)phenyl)cyclopropanecarboxamide], the Ki lay within 316 to 1000 nM. Turning to `O=C(Nc1ccc(C(=O)N2CCS(=O)(=O)CC2)c(N2CCCC2)c1)C1CC1` [Example 60, N-[4-(1,1-dioxo-1,4-thiazinane-4-carbonyl)-3-pyrrolidin-1-ylphenyl] Cyclopropanecarboxamide], the Ki fell in the range of 63.1 to 251 nM.

`Cc1nnc(-c2ccc(C(=O)N3CCN(C)CC3c3ccccc3)c(N3CCCC3)c2)[nH]1` (single isomer, unassigned) [Example 150b, (2R or 2S) (4-methyl-2-phenylpiperazin-1-yl)-[4-(5-methyl-4H-1,2,4-triazol-3-yl)-2-pyrrolidin-1-ylphenyl]methanone]: the Ki fell in the range of 1260 to 6310 nM.

Consider `CN(C)C(=O)N1CCN(C(=O)c2ccc(NC(=O)C3CC3)cc2N2CCCC2)C(c2ccccc2)C1` (stereo not shown) [Example 216, 4-[4-(cyclopropanecarbonylamino)-2-pyrrolidin-1-ylbenzoyl]-N,N-dimethyl-3-phenylpiperazine-1-carboxamide], for which the Ki fell in the range of 63.1 to 251 nM. The result for `O=C(Nc1ccc(C(=O)N2CCS(=O)(=O)CC2)c(-n2cc(C(F)(F)F)cn2)c1)C1CC1` [Example 182, N-[4-(1,1-dioxo-1,4-thiazinane-4-carbonyl)-3-[4-(trifluoromethyl)pyrazolyl]phenyl]cyclopropanecarboxamide] reads 316 to 1000 nM; that for `CN1CCN(C(=O)c2ccc(NC(=O)C3CC3)cc2N2CCCC2)C(c2cccs2)C1` (single isomer, unassigned) [Example 86b, N-[4-(4-methyl-2-thiophen-2-ylpiperazine-1-carbonyl)-3-pyrrolidin-1-ylphenyl]cyclopropanecarboxamide], ≤ 50.1 nM. The result for `O=C(Nc1ccc(C(=O)N2CCS(=O)(=O)CC2)c(N2CC3CCC2C3)c1)C1CC1` (stereo not shown) [Example 187, N-[3-(3-azabicyclo[2.2.1]heptan-3-yl)-4-(1,1-dioxo-1,4-thiazinane-4-carbonyl)phenyl]cycloprooanecarboxamide] reads 316 to 1000 nM; that for `CCCN1CCN(C(=O)c2ccc(NC(=O)C3CC3)cc2-n2ccc(C)n2)CC1` [Example 8, N-(3-(3-methyl-1H-pyrazol-1-yl)-4-(4-propylpiperazine-1-carbonyl)phenyl)cyclopropanecarboxamide], 63.1 to 251 nM. `CN1CCN(C(=O)c2ccc(NC(=O)C3CC3)cc2-n2ccc(C(F)(F)F)n2)C(c2ccccc2)C1` (stereo not shown) [Example 206, N-[4-(4-methyl-2-phenylpiperazine-1-carbonyl)-3-[3-(trifluoromethyl)pyrazol-1-yl]phenyl]cyclopropanecarboxamide]: the Ki is 63.1 to 251 nM.

On to `O=C(Nc1ccc(C(=O)N2CCC3(CC2)COC3)c(N2CCC(C(F)(F)F)C2)c1)C1CC1` (single isomer, unassigned) [Example 213b], for which the Ki was in the range of 63.1 to 251 nM.

In the case of `CCCN1CCN(C(=O)c2ccc(NC(=O)C3CC3)cc2N2CCC(C)CC2)CC1` [Example 15, N-(3-(4-methylpiperidin-1-yl)-4-(4-propylpiperazine-1-carbonyl)phenyl) cyclopropanecarboxamide], the Ki was 63.1 to 251 nM. The result for `CC1CC(C)CN(c2cc(NC(=O)C3CC3)ccc2-c2nnc(Sc3ccccc3)n2CCN(C)C)C1` (stereo not shown) [Example 115, N-[4-[4-[2-(dimethylamino)ethyl]-5-phenylsulfanyl-1,2,4-triazol-3-yl]-3-(3,5-dimethylpiperidin-1-yl)phenyl]cyclopropanecarboxamide] reads 316 to 1000 nM; that for `Cc1ccn(-c2cc(NC(=O)C3CC3)ccc2C(=O)N2CCN(C)CC2c2ccccc2)n1` (racemic) [Example 155c, N-[4-(4-methyl-2-phenylpiperazine-1-carbonyl)-3-(3-methylpyrazol-1-yl)phenyl]cyclopropanecarboxamide], 316 to 1000 nM. The result for `Cc1nnc(-c2ccc(C(=O)N3CCC(F)(F)CC3)c(-n3ccc(C(C)C)n3)c2)[nH]1` [Example 210, (4,4-difluoropiperidin-1-yl)-[4-(5-methyl-4H-1,2,4-triazol-3-yl)-2-(3-propan-2-ylpyrazol-1-yl)phenyl]methanone] reads ≤ 50.1 nM; that for `CN1CCN(C(=O)c2ccc(NC(=O)C3CC3)cc2N2CCCC2)C(c2cccc(Cl)c2)C1` (single isomer, unassigned) [Example 171b, (2R or 2S) N-[4-[2-(3-chlorophenyl)-4-methylpiperazine-1-carbonyl]-3-pyrrolidin-1-ylphenyl] cyclopropanecarboxamide], ≤ 50.1 nM; that for `CN1CCN(C(=O)c2ccc(NC(=O)C3CC3)cc2N2CCC3(COC3)C2)C(c2ccccc2Cl)C1` (racemic) [Example 211, N-[4-[2-(2-chlorophenyl)-4-methylpiperazine-1-carbonyl]-3-(2-oxa-7-azaspiro[3.4]octan-7-yl)phenyl]cyclopropanecarboxamide], 63.1 to 251 nM. For the compound `O=C(Nc1ccc(C(=O)N2CCn3cccc3C2)c(N2CCCCCC2)c1)C1CC1` [Example 39, N-(3-(azepan-1-yl)-4-(1,2,3,4-tetrahydropyrrolo[1,2-a]pyrazine-2-carbonyl)phenyl) cyclopropane carboxamide], the Ki fell in the range of 63.1 to 251 nM.
